≈ marks a conversion by molar mass, not a printed value. Residues, ends and D or L forms follow the SMILES beside them.
What was measured:
[1] = tested on: Bacillus subtilis (ATCC 6633); assay: microbe, parasite or virus in culture; assay type: cell-based; conditions: ATCC 6633; read-out: Minimum inhibitory concentration (MIC)
Method in brief: (§1)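 MICs were determined by serial two-fold dilution against the Gram-positive and Gram-negative strains. Each assay was run three times and the mean MIC is given.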

[2] = tested on: Escherichia coli (ATCC 25922); assay: microbe, parasite or virus in culture; assay type: cell-based; conditions: ATCC 25922; read-out: Minimum inhibitory concentration (MIC)
Method in brief: as §1

[3] = tested on: Escherichia coli (ATCC 9637); assay: microbe, parasite or virus in culture; assay type: cell-based; conditions: ATCC 9637; read-out: Minimum inhibitory concentration (MIC)
Method in brief: as §1

[4] = tested on: Klebsiella pneumoniae (ATCC 27736); assay: microbe, parasite or virus in culture; assay type: cell-based; conditions: ATCC 27736; read-out: Minimum inhibitory concentration (MIC)
Method in brief: as §1

[5] = tested on: Pseudomonas aeruginosa (ATCC BAA-427); assay: microbe, parasite or virus in culture; assay type: cell-based; conditions: ATCC BAA-427; read-out: Minimum inhibitory concentration (MIC)
Method in brief: as §1

[6] = tested on: Staphylococcus aureus (ATCC 25923); assay: microbe, parasite or virus in culture; assay type: cell-based; conditions: ATCC 25923; read-out: Minimum inhibitory concentration (MIC)
Method in brief: as §1

[7] = tested on: Staphylococcus aureus (ATCC 29213); assay: microbe, parasite or virus in culture; assay type: cell-based; conditions: ATCC 29213; read-out: Minimum inhibitory concentration (MIC)
Method in brief: as §1

[8] = tested on: Staphylococcus aureus (ATCC 33592) Methicillin resistant Genatmicin resistant; assay: microbe, parasite or virus in culture; assay type: cell-based; conditions: ATCC 33592; read-out: Minimum inhibitory concentration (MIC)
Method in brief: as §1

[9] = tested on: Staphylococcus aureus (ATCC 700698 MRSA); assay: microbe, parasite or virus in culture; assay type: cell-based; conditions: ATCC 700698; read-out: Minimum inhibitory concentration (MIC)
Method in brief: as §1

[10] = tested on: Staphylococcus aureus (ATCC 700699 MRSA); assay: microbe, parasite or virus in culture; assay type: cell-based; conditions: ATCC 700699; read-out: Minimum inhibitory concentration (MIC)
Method in brief: as §1

[11] = tested on: Candida albicans (ATCC 10231); assay: microbe, parasite or virus in culture; assay type: cell-based; conditions: ATCC 10231, 48 h; read-out: Minimum inhibitory concentration (MIC)
Description: (§2) The anti- fungal activity of peptides was performed according to the standard micro broth dilution technique as per NCCLS guidelines. These plates were incubated in a moist chamber at 35 °C, and an absorbance at 492 nm was recorded on a VersaMax microplate reader after 48 h for C. albicans ATCC 10231 and C. parapsilosis ATCC 22019 and 72 h for C. neoformans.

[12] = tested on: Candida parapsilosis (ATCC 22019); assay: microbe, parasite or virus in culture; assay type: cell-based; conditions: ATCC 22019, 48 h; read-out: Minimum inhibitory concentration (MIC)
Description: as §2

Cryptococcus neoformans = assay: microbe, parasite or virus in culture; assay type: cell-based; conditions: 72 h; read-out: Minimum inhibitory concentration (MIC)
Description: as §2

[13] = tested on: Sporothrix schenckii (Patient isolates); assay: microbe, parasite or virus in culture; assay type: cell-based; conditions: 48 h; read-out: Minimum inhibitory concentration (MIC)
E. coli (ATCC 25922) = assay type: cell-based, Escherichia coli; conditions: ATCC 25922, 1 h
Method in brief: (§3)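 E. coli ATCC 25922 at 10^6 CFU/ml in MH broth with physiological divalent and monovalent salts was exposed to serial peptide dilutions, 18 h shaking at 37 °C, and MIC read. Variants: peptides preheated 1 h at 4, 60 or 90 °C, or assay diluent with 10% fetal bovine serum, 0.4% BSA, 0.02% acetic acid.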

E. coli ATCC 25922 [14] = assay type: cell-based, Escherichia coli; conditions: ATCC 25922, 18 h
Method in brief: as §3

S. aureus (ATCC 25923) = assay type: cell-based, Staphylococcus aureus; conditions: ATCC 25923, 1 h
E. coli ATCC 25922 [15] = assay: Synergy with conventional antibiotics, checkerboard titration; assay type: cell-based, Escherichia coli
Method in brief: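 Checkerboard of 2-fold serial dilutions of peptide and antibiotic combined with log-phase bacteria, incubated 24 h at 37 °C. FIC index computed from combination versus single-agent MICs: <0.5 synergy, 0.5–1.0 additive, 1.0–4.0 indifferent, >4.0 antagonism.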

BALB/c mice = assay: In vivo toxicity of peptide alone; design: species or system mouse; conditions: peptide alone 5 and 10 mgKg−1 i.p., seven days, five animals
Description: For survival assay, mice were challenged intraperitoneally with LPS at a lethal dose of 15 mgKg^−1 E. coli 0111:B4[5]. Control mice were injected with an equal volume of PBS. G13P-Chr-1 at a single dose of 5 mgKg^−1 was injected in the mice groups that were already administered with 15 mgKg^−1 of LPS. Each group contained five mice. The mortality of mice was monitored up to 7 days and weight change was monitored every day. The peptide G13P-Chr-1 only was also injected in two groups of mice at 5 mgKg^−1 and 10 mgKg^−1 to check any mortality in mice by peptide only treatment.

[16] = tested on: TNF-α in serum of BALB/c mice injected with E. coli ATCC 25922; assay: In vivo TNF-α production after E. coli infection; conditions: BALB/c mice injected with mid-logarithmic phase E. coli ATCC 25922; two hours post infection; ELISA; versus untreated group
Description: Serum was isolated from the blood obtained by bleeding the mice retro-orbitally two hours post infection and ELISA was performed to determine the amount of TNF-α produced in the untreated group and the peptide-treated group.

CC[C@H](C)[C@H](NC(=O)[C@H](C)NC(=O)[C@H](CCCCN)NC(=O)[C@@H]1CCCN1C(=O)[C@H](C)NC(=O)[C@H](Cc1c[nH]cn1)NC(=O)[C@@H](NC(=O)[C@H](C)NC(=O)CNC(=O)[C@H](CCCCN)NC(=O)[C@@H](NC(=O)[C@H](CC(C)C)NC(=O)[C@H](Cc1c[nH]c2ccccc12)NC(=O)CNC(=O)[C@H](Cc1ccccc1)NC(=O)[C@@H](N)Cc1ccccc1)[C@@H](C)CC)[C@@H](C)CC)C(=O)N[C@@H](Cc1c[nH]cn1)C(=O)NCC(=O)N[C@@H](CC(C)C)C(=O)N[C@H](C(=O)N[C@@H](Cc1c[nH]cn1)C(=O)N[C@@H](CCCNC(=N)N)C(=O)N[C@@H](CCCNC(=N)N)C(=O)N[C@@H](CCCNC(=N)N)C(=O)N[C@@H](Cc1c[nH]cn1)C(N)=O)[C@@H](C)CC [Peptide G13P-Chr-1] (H-FFGWLIKGAIHAPKAIHGLIHRRRH-NH2)
MIC [1]: 3 µM (≈ 8.79 µg/mL)
MIC [2]: 5 µM (≈ 14.7 µg/mL)
MIC [3]: 3 µM (≈ 8.79 µg/mL)
MIC [4]: 6.8 µM (≈ 19.9 µg/mL)
MIC [5]: 6.8 µM (≈ 19.9 µg/mL)
MIC [6]: 3 µM (≈ 8.79 µg/mL)
MIC [7]: 1.6 µM (≈ 4.69 µg/mL)
MIC [8]: 1.6 µM (≈ 4.69 µg/mL)
MIC [9]: 3 µM (≈ 8.79 µg/mL)
MIC [10]: 1.6 µM (≈ 4.69 µg/mL)
MIC [11]: 13.6 µM (≈ 39.9 µg/mL)
MIC [12]: 6.8 µM (≈ 19.9 µg/mL)
MIC (Cryptococcus neoformans): 13.6 µM (≈ 39.9 µg/mL)
MIC [13]: 27.2 µM (≈ 79.7 µg/mL)
Antibacterial activity (MIC) after incubating peptide at 4 °C (E. coli (ATCC 25922)): 5 µM
Antibacterial activity (MIC) after incubating peptide at 60 °C (E. coli (ATCC 25922)): 8.6 µM
Antibacterial activity (MIC) after incubating peptide at 90 °C (E. coli (ATCC 25922)): 12.3 µM
Antibacterial activity (MIC) in the presence of 10% FBS (E. coli ATCC 25922 [14]): 8.6 µM
Antibacterial activity (MIC) in the presence of FeCl3 (E. coli ATCC 25922 [14]): 4.1 µM
Antibacterial activity (MIC) in the presence of KCl (E. coli ATCC 25922 [14]): 4.3 µM
Antibacterial activity (MIC) in the presence of MgCl2 (E. coli ATCC 25922 [14]): 4.3 µM
Antibacterial activity (MIC) in the presence of NH4Cl (E. coli ATCC 25922 [14]): 2.0 µM
Antibacterial activity (MIC) in the presence of NaCl (E. coli ATCC 25922 [14]): 8.6 µM
Antibacterial activity (MIC) after incubating peptide at 4 °C (S. aureus (ATCC 25923)): 3 µM
Antibacterial activity (MIC) after incubating peptide at 60 °C (S. aureus (ATCC 25923)): 13 µM
Antibacterial activity (MIC) after incubating peptide at 90 °C (S. aureus (ATCC 25923)): 17.3 µM
interaction of peptide with chloramphenicol (by FICI) (E. coli ATCC 25922 [15]): synergy (FICI < 0.5 is considered to indicate synergy)
survival of mice (in vivo cytotoxicity) (BALB/c mice): 100%
TNF-α production in serum [16]: significant reduction

Reference: article PMC5469811, “Identification of GXXXXG motif in Chrysophsin-1 and its implication in the design of analogs with cell-selective antimicrobial and anti-endotoxin activities” (Scientific Reports, 2017)
